US9328115B2, “Process for preparing meropenem trihydrate” (DAEWOONG PHARMACEUTICAL CO., LTD., priority 2012, dated 2016)

Assay: Water-solubility measurement at 26° C.
Format: physicochemical
Conditions: in water, measured at 26° C.
Description: The water-solubilities of the methanol solvate of meropenem obtained in the above as well as meropenem trihydrate were measured at 26° C.

Row | water-solubility [mg/mL] | Structure (SMILES)
1 | 57.6 | C[C@@H](O)[C@H]1C(=O)N2C(C(=O)O)=C(S[C@@H]3CN[C@H](C(=O)N(C)C)C3)[C@H](C)[C@H]12 [methanol solvate of meropenem, (4R,5S,6S)-3-((3S,5S)-5-(dimethylcarbamoyl)pyrrolidin-3-ylthio)-6-((R)-1-hydroxyethyl)-4-methyl-7-oxo-1-azabicyclo[3.2.0]hept-2-ene-2-carboxylic acid]
2 | 16.4 | C[C@@H](O)[C@H]1C(=O)N2C(C(=O)O)=C(S[C@@H]3CN[C@H](C(=O)N(C)C)C3)[C@H](C)[C@H]12 [meropenem trihydrate, (4R,5S,6S)-3-((3S,5S)-5-(dimethylcarbamoyl)pyrrolidin-3-ylthio)-6-((R)-1-hydroxyethyl)-4-methyl-7-oxo-1-azabicyclo[3.2.0]hept-2-ene-2-carboxylic acid]
